Activity calls are given as the source filed them. The calls are words filed in the database; no cut-off is given here. Some results are limits rather than exact numbers.

The results in this text go back to ChEMBL document CHEMBL4219027, “Lead Optimization of Benzoxepin-Type Selective Estrogen Receptor (ER) Modulators and Downregulators with Subtype-Specific ERα and ERβ Activity” (J Med Chem, 2018).

For data set [1], the target named is T1, Estrogen receptor beta (Homo sapiens, UniProt Q92731).
Data set [2] deals with T2, Estrogen receptor (Homo sapiens, UniProt P03372).
T2 sequence (P03372 whole entry): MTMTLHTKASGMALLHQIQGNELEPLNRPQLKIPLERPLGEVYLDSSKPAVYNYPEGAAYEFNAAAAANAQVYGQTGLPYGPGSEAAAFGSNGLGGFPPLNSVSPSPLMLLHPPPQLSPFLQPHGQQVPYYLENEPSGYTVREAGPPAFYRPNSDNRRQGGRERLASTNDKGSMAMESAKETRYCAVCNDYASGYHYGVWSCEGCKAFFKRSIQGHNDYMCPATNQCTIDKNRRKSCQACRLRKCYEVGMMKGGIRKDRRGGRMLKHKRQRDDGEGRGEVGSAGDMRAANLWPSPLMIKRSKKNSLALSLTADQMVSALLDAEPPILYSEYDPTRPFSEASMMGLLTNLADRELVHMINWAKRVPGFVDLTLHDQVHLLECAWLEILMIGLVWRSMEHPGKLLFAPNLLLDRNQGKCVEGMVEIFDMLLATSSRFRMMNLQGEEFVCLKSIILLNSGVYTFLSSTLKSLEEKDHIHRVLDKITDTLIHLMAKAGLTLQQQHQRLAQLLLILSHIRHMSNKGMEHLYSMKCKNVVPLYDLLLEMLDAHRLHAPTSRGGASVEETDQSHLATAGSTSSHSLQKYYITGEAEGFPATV
Put plainly: Displacement of fluorescein-labeled estradiol (fluoromone) from human recombinant full-length estrogen receptor alpha after 2 hrs by fluorescence polarization assay.

The subject of data set [3] is MCF7. Put plainly: cells. The note with it: Homo sapiens, MCF7, 72 h.
Description: Antiproliferative activity against ER-dependent human MCF7 cells after 72 hrs by MTT assay
The species named for a further data set is Homo sapiens. Put plainly: Selectivity index, ratio of IC50 for human recombinant full-length estrogen receptor beta to IC50 for human recombinant full-length estrogen receptor alpha.
For data set [4], the target named is T3, Estrogen receptor (Homo sapiens, UniProt Q92731+P03372). Put plainly: Antagonist activity at estrogen receptor alpha/beta in human Ishikawa cells after 72 hrs by alkaline phosphatase assay. It counts as cell-based.
Data set [5] deals with estrogen receptor alpha/beta (Homo sapiens, UniProt P03372+Q92731). Put plainly: Estrogenic activity at estrogen receptor alpha/beta in human Ishikawa cells at 100 uM after 72 hrs by alkaline phosphatase assay relative to estradiol. The class given is ADME, cell-based. The note with it: read-out: Activity.
The target in data set [6] is T3, Estrogen receptor. Put plainly: Estrogenic activity at estrogen receptor alpha/beta in human Ishikawa cells at 10 uM after 72 hrs by alkaline phosphatase assay relative to estradiol. The class given is ADME, cell-based.
In data set [7] the target is T1, Estrogen receptor beta. Put plainly: Downregulation of estrogen receptor beta protein levels in human MCF7 cell lysate at 10 uM after 24 hrs by Western blot analysis.
For data set [8], the system named is MCF-10A. Put plainly: Cytotoxicity against human MCF10A cells assessed as reduction in cell viability at 1 to 2 uM after 24 to 48 hrs by CytoTox 96 non-radioactive LDH cytotoxicity assay. It counts as cell-based.
Data set [9] concerns MCF-10A. Put plainly: Cytotoxicity against human MCF10A cells assessed as reduction in cell viability at 5 uM after 24 hrs by CytoTox 96 non-radioactive LDH cytotoxicity assay. The class given is cell-based.
Data set [10] concerns the target T4, Estrogen receptor (Homo sapiens) (UniProt P03372).
T4 sequence (whole entry): T2 sequence (P03372 whole entry)
Put plainly: Downregulation of estrogen receptor alpha protein levels in human MCF7 cell lysate at 10 uM after 24 hrs by Western blot analysis. In general terms: In western blotting, separated proteins are transferred to a membrane and probed.

Data set [11] has as its system MCF-10A. Put plainly: Cytotoxicity against human MCF10A cells assessed as reduction in cell viability at 10 uM after 24 to 48 hrs by CytoTox 96 non-radioactive LDH cytotoxicity assay. It counts as cell-based.
The test system of data set [12] is MCF-10A. Put plainly: Cytotoxicity against human MCF10A cells assessed as reduction in cell viability at 1 to 10 uM after 24 to 48 hrs by CytoTox 96 non-radioactive LDH cytotoxicity assay. The class given is cell-based.
The target of data set [13] is T1, Estrogen receptor beta. Put plainly: Antagonist activity at estrogen receptor beta in human Ishikawa cells after 72 hrs by alkaline phosphatase assay. The class given is cell-based.
Data set [14] has as its target T1, Estrogen receptor beta. Put plainly: Estrogenic activity at estrogen receptor beta in human Ishikawa cells at 1 uM after 72 hrs by alkaline phosphatase assay relative to estradiol. The class given is cell-based.
In data set [15] the target is T3, Estrogen receptor. Put plainly: Estrogenic activity at estrogen receptor alpha/beta in human Ishikawa cells at 0.01 uM after 72 hrs by alkaline phosphatase assay relative to estradiol. It counts as ADME, cell-based.
The test system of data set [16] is MCF7. Put plainly: cells. The note with it: Homo sapiens.
Description: Cytotoxicity against human MCF7 cells assessed as reduction in cell viability after 3 to 12 days by MTT assay

T1 sequence (Q92731 whole entry): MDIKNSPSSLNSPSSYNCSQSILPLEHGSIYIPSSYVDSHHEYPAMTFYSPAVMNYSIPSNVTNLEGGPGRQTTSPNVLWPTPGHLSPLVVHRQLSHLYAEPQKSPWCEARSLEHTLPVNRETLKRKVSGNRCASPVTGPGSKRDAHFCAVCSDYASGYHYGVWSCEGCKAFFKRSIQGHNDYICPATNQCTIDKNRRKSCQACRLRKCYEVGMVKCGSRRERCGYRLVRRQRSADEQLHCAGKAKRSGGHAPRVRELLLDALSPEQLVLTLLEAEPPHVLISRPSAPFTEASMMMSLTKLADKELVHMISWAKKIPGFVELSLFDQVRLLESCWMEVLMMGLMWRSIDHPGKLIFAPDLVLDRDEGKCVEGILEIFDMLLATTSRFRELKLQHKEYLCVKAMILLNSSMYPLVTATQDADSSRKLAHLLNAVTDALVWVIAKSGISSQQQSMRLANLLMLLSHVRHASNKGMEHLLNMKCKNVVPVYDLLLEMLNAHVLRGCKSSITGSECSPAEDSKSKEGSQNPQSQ

By IC50 is commonly meant the midpoint of a concentration-inhibition curve. For the compound `O=Cc1ccc(C2=C(c3ccc(O)cc3)CCOc3cc(F)ccc32)cc1`, the IC50 amounted to 395 nM at Estrogen receptor beta [1] and 407 nM at Estrogen receptor [2].
Turning to `CCNC(=O)/C=C/c1ccc(C2=C(c3ccc(O)cc3)CCOc3cc(F)ccc32)cc1`, half-maximal inhibition with MCF7 [3] (IC50) required 700 nM.
Consider `O=C(/C=C/c1ccc(C2=C(c3ccc(O)cc3)CCOc3cc(F)ccc32)cc1)N1CCN(Cc2ccccc2)CC1`, for which the IC50 at Estrogen receptor beta [1] amounted to 72 nM; in the data set with MCF7 [3] it was 8400 nM; at Estrogen receptor [2], 74 nM. Also, the Ratio IC50 in the data set listed under Homo sapiens is 1.
As for `CC(=O)/C=C/c1ccc(C2=C(c3ccc(O)cc3)CCOc3cc(F)ccc32)cc1`, the IC50 at Estrogen receptor beta [1] turned out to be 175 nM; with MCF7 [3], 890 nM; on Estrogen receptor [2], 59 nM; against Estrogen receptor [4], 0.45 µM. The Ratio IC50 in the data set listed under Homo sapiens was 3.
Regarding `CCN(CC)CCNC(=O)/C=C/c1ccc(C2=C(c3ccc(O)cc3)CCOc3cc(F)ccc32)cc1`, the values for the IC50 at Estrogen receptor beta [1], in the data set with MCF7 [3] and at Estrogen receptor [2] were 585 nM, 8800 nM and 1020 nM, respectively. Also, the Ratio IC50 in the data set filed under Homo sapiens was 0.58.
For the compound `O=C(O)COc1ccc(C2=C(c3ccc(O)cc3)CCOc3cc(F)ccc32)cc1`, the IC50 is 34 nM against Estrogen receptor beta [1], over 20000 nM with MCF7 [3] and 634 nM on Estrogen receptor [2]. The Ratio IC50 in the data set filed under Homo sapiens stood at 0.054.
For `CCN(CC)C(=O)/C=C/c1ccc(C2=C(c3ccc(O)cc3)CCOc3cc(F)ccc32)cc1`, the IC50 was 43 nM against Estrogen receptor beta [1], 13000 nM in the data set on MCF7 [3], 349 nM at Estrogen receptor [2] and 0.0098 µM on Estrogen receptor [4]. Also, in data set [5], the activity at 72 h, 100 µM is 10%. Also, the Ratio IC50 in the data set filed under Homo sapiens stood at 0.12.
`Cc1ccc(N2CCN(C(=O)/C=C/c3ccc(C4=C(c5ccc(O)cc5)CCOc5cc(F)ccc54)cc3)CC2)cc1`: the IC50 was determined as 203 nM against Estrogen receptor beta [1], 1050 nM in the data set with MCF7 [3] and 48 nM on Estrogen receptor [2]. Also, the Ratio IC50 in the data set filed under Homo sapiens came to 4.3.
Regarding `O=C(O)/C=C/c1ccc(C2=C(c3ccc(O)cc3)CCSc3cc(F)ccc32)cc1`, the IC50 worked out at 3.1 nM against Estrogen receptor beta [1], 95 nM in the data set on MCF7 [3], 4.1 nM at Estrogen receptor [2] and 0.18 µM against Estrogen receptor [4]. Also, the Activity on Estrogen receptor [6] is on record as 1.6%. In the data set listed under Homo sapiens, the Ratio IC50 was determined as 0.8.
Consider `O=C(/C=C/c1ccc(C2=C(c3ccc(O)cc3)CCOc3cc(F)ccc32)cc1)c1ccccc1`, for which the IC50 against Estrogen receptor beta [1] came to 447 nM; in the data set with MCF7 [3] it was 970 nM; at Estrogen receptor [2], 104 nM. For the same compound, the Ratio IC50 in the data set listed under Homo sapiens was found to be 4.2.
For the compound `O=C(O)/C=C/c1ccc(C2=C(c3ccc(O)cc3)CCOc3ccccc32)cc1`, the concentration for half-maximal inhibition (IC50) was 46 nM against Estrogen receptor beta [1], 21000 nM in the data set with MCF7 [3], 21 nM on Estrogen receptor [2] and 0.67 µM on Estrogen receptor [4]. Also, the Ratio IC50 in the data set listed under Homo sapiens worked out at 2.2.
In the case of `O=C(O)/C=C/c1ccc(C2=C(c3ccc(O)cc3)CCOc3cc(F)ccc32)cc1`, the IC50 against Estrogen receptor beta [1] worked out at 72 nM; in the data set on MCF7 [3], 260 nM; on Estrogen receptor [2] it was 14 nM; against Estrogen receptor [4], 1.39 µM. Moreover, the Ratio IC50 in the data set filed under Homo sapiens came out at 5.2.
The compound `CCC(=C(c1ccc(O)cc1)c1ccc(OCCN(C)C)cc1)c1ccccc1` showed an IC50 in the data set with MCF7 [3] of 110 nM.
As for `CN1CCN(C(=O)/C=C/c2ccc(C3=C(c4ccc(O)cc4)CCOc4cc(F)ccc43)cc2)CC1`, the half-maximal inhibitory concentration (IC50) was 354 nM on Estrogen receptor beta [1], 480 nM in the data set with MCF7 [3] and 57 nM at Estrogen receptor [2]. In addition, in the data set filed under Homo sapiens, the Ratio IC50 was 6.3.
For `O=C(/C=C/c1ccc(C2=C(c3ccc(O)cc3)CCOc3cc(F)ccc32)cc1)N1CCCC1`, in that order: 2.4 nM, 14000 nM, 67 nM and 0.038.
Regarding `COc1ccc2c(c1)OCCC(c1ccc(O)cc1)=C2c1ccc(OCC(=O)O)cc1`, the IC50 was 1010 nM against Estrogen receptor beta [1], over 20000 nM with MCF7 [3] and 429 nM at Estrogen receptor [2]. In addition, in the data set filed under Homo sapiens, the Ratio IC50 is 2.4.
As for `Oc1ccc(C2=C(c3ccc(/C=C/c4ccccc4)cc3)c3ccc(F)cc3OCC2)cc1`, the results for the IC50 against Estrogen receptor beta [1], with MCF7 [3] and on Estrogen receptor [2] were 14300 nM, 12000 nM and 22400 nM, respectively. The Ratio IC50 in the data set filed under Homo sapiens was 0.6.
For the compound `O=C(/C=C/c1ccc(C2=C(c3ccc(O)cc3)CCOc3cc(F)ccc32)cc1)N1CCNCC1`, the results for the IC50 against Estrogen receptor beta [1], in the data set on MCF7 [3] and on Estrogen receptor [2] were 25 nM, 9500 nM and 14 nM, respectively. Further, in the data set filed under Homo sapiens, the Ratio IC50 came out at 1.9.
Regarding `O=C(/C=C/c1ccc(C2=C(c3ccc(O)cc3)CCOc3cc(F)ccc32)cc1)Nc1ccccc1`, the values for the IC50 at Estrogen receptor beta [1], in the data set on MCF7 [3] and at Estrogen receptor [2] were 0.94 nM, 1300 nM and 11.7 nM, respectively. The Ratio IC50 in the data set filed under Homo sapiens was determined as 0.087.
Turning to `O=C(O)/C=C/C=C/c1ccc(C2=C(c3ccc(O)cc3)CCOc3cc(F)ccc32)cc1`, the Activity entry (on Estrogen receptor beta [7]; in data set [10]) was “Active” throughout. The concentration for half-maximal inhibition (IC50) amounted to 0.55 nM against Estrogen receptor beta [1], 1600 nM with MCF7 [3] and 71.6 nM on Estrogen receptor [2]. Moreover, the Activity entry is “Non-Toxic” in the data set on MCF-10A [8], 50% in the data set with MCF-10A [9] and “Toxic” in the data set on MCF-10A [11]. In addition, in the data set filed under Homo sapiens, the Ratio IC50 came to 0.008.
`O=C(O)CCCOc1ccc(C2=C(c3ccc(O)cc3)CCOc3cc(F)ccc32)cc1`: the Activity result on Estrogen receptor beta [7] is “Active”. In addition, the IC50 is 1.23 nM at Estrogen receptor beta [1], over 20000 nM with MCF7 [3], 147 nM on Estrogen receptor [2] and 430 nM against Estrogen receptor beta [13]. Besides, the values for the Activity result with MCF-10A [12] and on Estrogen receptor beta [14] were “Non-Toxic” and 3.2%, respectively. Further, the Activity result in data set [10] was “inactive”. In the data set filed under Homo sapiens, the Ratio IC50 was found to be 0.008.
For `COc1ccc2c(c1)OCCC(c1ccc(O)cc1)=C2c1ccc(/C=C/C(=O)O)cc1`, the IC50 on Estrogen receptor beta [1] was 119 nM; in the data set with MCF7 [3] it was over 20000 nM; at Estrogen receptor [2], 23 nM; on Estrogen receptor [4], over 1 µM. Moreover, on Estrogen receptor [15], the Activity is 15.8%. The Ratio IC50 in the data set filed under Homo sapiens was determined as 5.3.
In the case of `CCC(=C(c1ccc(O)cc1)c1ccc(/C=C/C(=O)O)cc1)c1ccccc1`, the IC50 in the data set with MCF7 [3] was 1300 nM; in the data set on MCF7 [16], 100 to 1000 nM.
